Data as given in ChEMBL document CHEMBL4732177 (J Med Chem, 2021).
Bridge positions count the residues as written; N and C are the ends. Square brackets hold non-standard residues; d marks the D form. Peptide text beside a SMILES is read from it. NMeR = CN[C@@H](CCCNC(=N)N)C(=O)O; AllylGly = C=CC[C@H](N)C(=O)O; Pen = CC(C)(S)[C@H](N)C(=O)O

Columns and labels:
[1] = biological target: Neurotensin receptor type 1 (Homo sapiens, UniProt P30989); experiment: Displacement of [125I]Tyr3-neurotensin from human recombinant NTS1 stably expressed in CHO-K1 cell membranes incubated for 60 mins by gamma counter analysis; design: species or system Cell membrane
Neurotensin receptor type 1 (Homo sapiens, UniProt P30989), sequence (P30989 whole entry): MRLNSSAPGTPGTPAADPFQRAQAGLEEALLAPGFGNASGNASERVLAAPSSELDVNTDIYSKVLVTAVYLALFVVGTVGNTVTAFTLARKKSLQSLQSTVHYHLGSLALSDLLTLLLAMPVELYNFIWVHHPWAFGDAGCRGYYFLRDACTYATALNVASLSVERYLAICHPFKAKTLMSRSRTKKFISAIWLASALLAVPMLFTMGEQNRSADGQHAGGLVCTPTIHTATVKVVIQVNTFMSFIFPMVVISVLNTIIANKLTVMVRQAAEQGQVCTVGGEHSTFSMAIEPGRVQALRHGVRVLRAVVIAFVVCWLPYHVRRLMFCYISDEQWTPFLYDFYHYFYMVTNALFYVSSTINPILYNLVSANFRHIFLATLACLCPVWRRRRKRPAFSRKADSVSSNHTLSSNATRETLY

[2] = biological target: Neurotensin receptor type 2 (Homo sapiens, UniProt O95665); experiment: Displacement of [125I]Tyr3-neurotensin from human recombinant NTS2 stably expressed in human 1321N1 cell membranes incubated for 60 mins by gamma counter analysis; design: species or system Cell membrane
Neurotensin receptor type 2, sequence (O95665 whole entry): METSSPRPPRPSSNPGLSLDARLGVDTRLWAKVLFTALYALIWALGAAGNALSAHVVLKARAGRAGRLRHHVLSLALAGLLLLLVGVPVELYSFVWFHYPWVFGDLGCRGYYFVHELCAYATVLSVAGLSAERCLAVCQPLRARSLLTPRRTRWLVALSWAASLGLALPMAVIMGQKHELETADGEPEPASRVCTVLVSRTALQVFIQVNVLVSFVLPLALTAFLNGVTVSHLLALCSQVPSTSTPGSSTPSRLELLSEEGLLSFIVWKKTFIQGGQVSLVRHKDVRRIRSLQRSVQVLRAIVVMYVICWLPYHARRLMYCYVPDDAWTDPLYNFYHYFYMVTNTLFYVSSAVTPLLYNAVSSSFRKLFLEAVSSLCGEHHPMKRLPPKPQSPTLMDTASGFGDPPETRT

[3] = biological target: Neurotensin receptor type 1 (Mus musculus, UniProt O88319); experiment: Displacement of [3H]-neurotensin from NTS1 in mouse brain membrane incubated for 30 mins by liquid scintillation counter analysis; format: cell membranes
Neurotensin receptor type 1 (Mus musculus, UniProt O88319), sequence (O88319 whole entry): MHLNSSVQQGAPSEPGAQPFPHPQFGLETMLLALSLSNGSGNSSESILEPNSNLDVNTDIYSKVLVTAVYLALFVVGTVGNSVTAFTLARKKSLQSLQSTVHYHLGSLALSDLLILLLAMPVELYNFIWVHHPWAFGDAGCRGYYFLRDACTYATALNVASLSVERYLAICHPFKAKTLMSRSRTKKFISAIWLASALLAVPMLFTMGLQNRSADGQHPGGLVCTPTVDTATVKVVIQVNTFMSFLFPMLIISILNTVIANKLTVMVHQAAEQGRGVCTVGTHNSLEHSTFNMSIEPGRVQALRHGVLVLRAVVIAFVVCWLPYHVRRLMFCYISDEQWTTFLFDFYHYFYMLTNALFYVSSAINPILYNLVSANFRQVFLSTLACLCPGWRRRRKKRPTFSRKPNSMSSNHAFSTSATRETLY

Compound | Ki [1] [µM] | Ki [2] [µM] | Ki [3] [µM]
CC[C@H](C)[C@H](NC(=O)[C@H](Cc1ccc(O)cc1)NC(=O)[C@@H]1CCCN1C(=O)[C@H](CCCNC(=N)N)NC(=O)[C@H](CCCNC(=N)N)NC(=O)[C@@H]1CCCN1C(=O)[C@H](CCCCN)NC(=O)[C@H](CC(N)=O)NC(=O)[C@H](C)NC(=O)[C@H](Cc1ccc(O)cc1)NC(=O)[C@H](CC(C)C)NC(=O)[C@@H]1CCC(=O)N1)C(=O)N[C@@H](CC(C)C)C(=O)O | 0.0018 | 0.0027 | –
CC[C@H](C)[C@H](NC(=O)[C@H](C)NC(=O)[C@@H]1CCCN1C(=O)[C@H](CCCN=C(N)N)NC(=O)[C@H](CCCN=C(N)N)NC(=O)[C@@H]1CCCN1C(=O)[C@H](CCCCN)NC(=O)[C@H](CC(N)=O)NC(=O)[C@H](CCC(=O)O)NC(=O)[C@H](Cc1ccc(O)cc1)NC(=O)[C@H](CC(C)C)NC(=O)[C@@H]1CCC(=O)N1)C(=O)N[C@@H](CC(C)C)C(=O)O | > 10 | 0.59 | –
CC(C)C[C@H](NC(=O)[C@H](Cc1ccc(O)cc1)NC(=O)[C@H]1CCCN1C(=O)[C@@H]1C/C=C\C[C@H](N)C(=O)N[C@@H](CCCCN)C(=O)N[C@@H](CCCCN)C(=O)N1)C(=O)O | > 100 | 0.2 | –
CC[C@H](C)[C@H](NC(=O)[C@H](Cc1ccc(O)cc1)NC(=O)[C@@H]1CCCN1C(=O)[C@H](CCCNC(=N)N)NC(=O)[C@@H](N)CCCNC(=N)N)C(=O)O | > 100 | 0.62 | –
CC(C)C[C@H](NC(=O)[C@H](Cc1ccc(O)cc1)NC(=O)[C@@H]1CCCC[C@H](N)C(=O)N[C@@H](CCCCN)C(=O)N[C@@H](CCCCN)C(=O)N1)C(=O)O | > 100 | 0.09 | –
CC[C@H](C)[C@H](NC(=O)[C@H](Cc1ccc(O)cc1)NC(=O)[C@@H]1CCCN1C(=O)[C@H](CCCNC(=N)N)NC(=O)[C@H](CCCNC(=N)N)NC(=O)[C@@H]1CCCN1C(=O)[C@H](CCCCN)NC(=O)[C@H](CC(N)=O)NC(=O)[C@H](CCC(=O)O)NC(=O)[C@H](Cc1ccc(O)cc1)NC(=O)[C@H](C)NC(=O)[C@@H]1CCC(=O)N1)C(=O)N[C@@H](CC(C)C)C(=O)O | 0.0024 | 0.0068 | –
CC[C@H](C)[C@H](NC(=O)[C@H](Cc1ccc(O)cc1)NC(=O)[C@@H]1CCCN1C(=O)[C@H](CCCNC(=N)N)NC(=O)[C@H](CCCNC(=N)N)NC(=O)[C@H](C)NC(=O)[C@H](CCCCN)NC(=O)[C@H](CC(N)=O)NC(=O)[C@H](CCC(=O)O)NC(=O)[C@H](Cc1ccc(O)cc1)NC(=O)[C@H](CC(C)C)NC(=O)[C@@H]1CCC(=O)N1)C(=O)N[C@@H](CC(C)C)C(=O)O | 0.0029 | 0.0046 | –
CC[C@@H](C)[C@H](NC(=O)[C@H](Cc1ccc(O)cc1)NC(=O)[C@@H]1C/C=C\C[C@H](N)C(=O)N[C@@H](CCCCN)C(=O)N[C@@H](CCCCN)C(=O)N1)C(=O)O | > 100 | > 10 | –
CC[C@H](C)[C@H](NC(=O)[C@H](Cc1ccc(O)cc1)NC(=O)[C@H](CCCCN)NC(=O)[C@@H]1C/C=C\C[C@H](N)C(=O)N[C@@H](CCCCN)C(=O)N1)C(=O)N[C@@H](CC(C)C)C(=O)O (H-[AllylGly]K[AllylGly]KYIL-OH; staple (Z) 1-3) | > 100 | > 10 | –
CC[C@@H](C)[C@H](NC(=O)[C@H](Cc1ccc(O)cc1)NC(=O)[C@@H]1C/C=C\C[C@H](NC(=O)[C@@H](N)CCCCN)C(=O)N[C@@H](CCCCN)C(=O)N1)C(=O)N[C@@H](CC(C)C)C(=O)O | > 100 | > 10 | –
CN[C@@H](CCCNC(=N)N)C(=O)N[C@H]1CCCCNC(=O)CC[C@@H](C(=O)N[C@@H](CC(C)C)C(=O)O)NC(=O)[C@H](Cc2c[nH]c3ccccc23)NC(=O)[C@@H]2CCCN2C1=O (H-[NMeR]KPWEL-OH; lactam 2-5) | – | – | 0.77
CN[C@@H](CCCNC(=N)N)C(=O)N[C@H]1CSSC(C)(C)[C@@H](C(=O)N[C@@H](CC(C)C)C(=O)O)NC(=O)[C@H](Cc2c[nH]c3ccccc23)NC(=O)[C@@H]2CCCN2C1=O (H-[NMeR]CPW[Pen]L-OH; disulfide 2-5) | – | – | 0.083
CC(C)C[C@H](NC(=O)[C@H](Cc1ccc(O)cc1)NC(=O)[C@H]1C/C=C\C[C@@H](N)C(=O)N[C@@H](CCCCN)C(=O)N[C@@H](CCCCN)C(=O)N1)C(=O)O | > 100 | 2.2 | –
CC[C@H](C)[C@H](NC(=O)[C@H](Cc1ccc(O)cc1)NC(=O)[C@@H]1CCCN1C(=O)[C@H](CCCNC(=N)N)NC(=O)[C@H](CCCNC(=N)N)NC(=O)[C@@H]1CCCN1C(=O)[C@H](CCCCN)NC(=O)[C@H](CC(N)=O)NC(=O)[C@H](CCC(=O)O)NC(=O)[C@H](Cc1ccc(O)cc1)NC(=O)[C@H](CC(C)C)NC(=O)[C@@H]1CCC(=O)N1)C(=O)N[C@@H](C)C(=O)O | > 10 | 0.655 | –
CC(C)C[C@H](NC(=O)[C@H](Cc1ccc(O)cc1)NC(=O)[C@H]1C/C=C\C[C@H](N)C(=O)N[C@@H](CCCCN)C(=O)N[C@@H](CCCCN)C(=O)N2CCC[C@H]2C(=O)N1)C(=O)O | > 100 | 2.5 | –
CC[C@@H](C)[C@H](NC(=O)[C@H](Cc1ccc(O)cc1)NC(=O)[C@@H]1C/C=C\C[C@H](N)C(=O)N[C@@H](CCCCN)C(=O)N[C@@H](CCCCN)C(=O)N1)C(=O)N[C@@H](CC(C)C)C(=O)O | > 10 | > 10 | –
CC[C@H](C)[C@H](NC(=O)[C@H](Cc1ccc(O)cc1)NC(=O)[C@@H]1CCCN1C(=O)[C@H](CCCNC(=N)N)NC(=O)[C@H](CCCNC(=N)N)NC(=O)[C@@H]1CCCN1C(=O)[C@H](CCCCN)NC(=O)[C@H](CC(N)=O)NC(=O)[C@H](CCC(=O)O)NC(=O)[C@H](C)NC(=O)[C@H](CC(C)C)NC(=O)[C@@H]1CCC(=O)N1)C(=O)N[C@@H](CC(C)C)C(=O)O | 0.0028 | 0.0087 | –
CC[C@H](C)[C@H](NC(=O)[C@H](Cc1ccc(O)cc1)NC(=O)[C@@H]1CCCN1C(=O)[C@H](CCCNC(=N)N)NC(=O)[C@H](CCCNC(=N)N)NC(=O)[C@@H]1CCCN1C(=O)[C@H](CCCCN)NC(=O)[C@H](C)NC(=O)[C@H](CCC(=O)O)NC(=O)[C@H](Cc1ccc(O)cc1)NC(=O)[C@H](CC(C)C)NC(=O)[C@@H]1CCC(=O)N1)C(=O)N[C@@H](CC(C)C)C(=O)O | 0.0024 | 0.0088 | –
H-RRPYL-OH | > 100 | 0.391 | –
CC(C)C[C@H](NC(=O)[C@H](Cc1ccc(O)cc1)NC(=O)[C@@H]1CSSC[C@H](N)C(=O)N[C@@H](CCCCN)C(=O)N[C@@H](CCCCN)C(=O)N1)C(=O)O (H-CKKCYL-OH; disulfide 1-4) | > 100 | 1.5 | –
CC[C@@H](C)[C@H](NC(=O)[C@@H]1C/C=C\C[C@H](N)C(=O)N[C@@H](CCCCN)C(=O)N[C@@H](CCCCN)C(=O)N[C@@H](Cc2ccc(O)cc2)C(=O)N1)C(=O)N[C@@H](CC(C)C)C(=O)O | > 10 | 1.3 | –
CC[C@H](C)[C@H](NC(=O)[C@H](Cc1ccc(O)cc1)NC(=O)[C@@H]1CCCN1C(=O)[C@H](CCCNC(=N)N)NC(=O)[C@H](CCCNC(=N)N)NC(=O)[C@@H]1CCCN1C(=O)[C@H](C)NC(=O)[C@H](CC(N)=O)NC(=O)[C@H](CCC(=O)O)NC(=O)[C@H](Cc1ccc(O)cc1)NC(=O)[C@H](CC(C)C)NC(=O)[C@@H]1CCC(=O)N1)C(=O)N[C@@H](CC(C)C)C(=O)O | 0.006 | 0.0093 | –
CC(C)C[C@H](NC(=O)[C@H](Cc1ccc(O)cc1)NC(=O)[C@@H]1C/C=C\C[C@@H](N)C(=O)N[C@@H](CCCCN)C(=O)N[C@@H](CCCCN)C(=O)N1)C(=O)O | > 100 | 0.1 | –
CC[C@H](C)[C@H](NC(=O)[C@H](Cc1ccc(O)cc1)NC(=O)[C@@H]1CCCN1C(=O)[C@H](CCCNC(=N)N)NC(=O)[C@H](C)NC(=O)[C@@H]1CCCN1C(=O)[C@H](CCCCN)NC(=O)[C@H](CC(N)=O)NC(=O)[C@H](CCC(=O)O)NC(=O)[C@H](Cc1ccc(O)cc1)NC(=O)[C@H](CC(C)C)NC(=O)[C@@H]1CCC(=O)N1)C(=O)N[C@@H](CC(C)C)C(=O)O | 0.075 | 0.095 | –
CC[C@H](C)[C@H](NC(=O)[C@H](Cc1ccc(O)cc1)NC(=O)[C@H](C)NC(=O)[C@H](CCCNC(=N)N)NC(=O)[C@H](CCCNC(=N)N)NC(=O)[C@@H]1CCCN1C(=O)[C@H](CCCCN)NC(=O)[C@H](CC(N)=O)NC(=O)[C@H](CCC(=O)O)NC(=O)[C@H](Cc1ccc(O)cc1)NC(=O)[C@H](CC(C)C)NC(=O)[C@@H]1CCC(=O)N1)C(=O)N[C@@H](CC(C)C)C(=O)O | 0.161 | 0.016 | –
CC[C@H](C)[C@H](NC(=O)[C@H](Cc1ccc(O)cc1)NC(=O)[C@@H]1CCCN1C(=O)[C@H](CCCNC(=N)N)NC(=O)[C@H](CCCNC(=N)N)NC(=O)[C@@H]1CCCN1C(=O)[C@H](CCCCN)NC(=O)[C@H](CC(N)=O)NC(=O)[C@H](CCC(=O)O)NC(=O)[C@H](Cc1ccc(O)cc1)NC(=O)[C@H](CC(C)C)NC(=O)[C@H](C)N)C(=O)N[C@@H](CC(C)C)C(=O)O | 0.002 | 0.0087 | –
CC(C)C[C@H](NC(=O)[C@H](Cc1ccc(O)cc1)NC(=O)[C@H]1C/C=C\C[C@H](N)C(=O)N[C@@H](CCCCN)C(=O)N[C@@H](CCCCN)C(=O)N1)C(=O)O | > 100 | 1.1 | –
CC[C@@H](C)[C@H](NC(=O)[C@H](CC(C)C)NC(=O)[C@H](Cc1ccc(O)cc1)NC(=O)[C@@H]1C/C=C\C[C@H](N)C(=O)N[C@@H](CCCCN)C(=O)N[C@@H](CCCCN)C(=O)N1)C(=O)O | > 100 | > 10 | –
CC[C@H](C)[C@H](NC(=O)[C@H](Cc1ccc(O)cc1)NC(=O)[C@@H]1CCCN1C(=O)[C@@H](C)NC(=O)[C@H](CCCN=C(N)N)NC(=O)[C@@H]1CCCN1C(=O)[C@H](CCCCN)NC(=O)[C@H](CC(N)=O)NC(=O)[C@H](CCC(=O)O)NC(=O)[C@H](Cc1ccc(O)cc1)NC(=O)[C@H](CC(C)C)NC(=O)[C@@H]1CCC(=O)N1)C(=O)N[C@@H](CC(C)C)C(=O)O | 0.174 | – | –
CC[C@H](C)[C@H](NC(=O)[C@H](Cc1ccc(O)cc1)NC(=O)[C@@H]1CCCN1C(=O)[C@H](C)NC(=O)[C@H](CCCN=C(N)N)NC(=O)[C@@H]1CCCN1C(=O)[C@H](CCCCN)NC(=O)[C@H](CC(N)=O)NC(=O)[C@H](CCC(=O)O)NC(=O)[C@H](Cc1ccc(O)cc1)NC(=O)[C@H](CC(C)C)NC(=O)[C@@H]1CCC(=O)N1)C(=O)N[C@@H](CC(C)C)C(=O)O | – | 0.01 | –
